26 compounds from ChEMBL document CHEMBL3352157, “1,2,4-triazolo[1,5-a]quinoxaline derivatives and their simplified analogues as adenosine A₃ receptor antagonists. Synthesis, structure-affinity relationships and molecular modeling studies” (Bioorg Med Chem, 2015) can be followed below.

Assay [1] deals with T1, Adenosine receptor A1 (Homo sapiens, UniProt P30542).
T1 sequence (P30542 whole entry): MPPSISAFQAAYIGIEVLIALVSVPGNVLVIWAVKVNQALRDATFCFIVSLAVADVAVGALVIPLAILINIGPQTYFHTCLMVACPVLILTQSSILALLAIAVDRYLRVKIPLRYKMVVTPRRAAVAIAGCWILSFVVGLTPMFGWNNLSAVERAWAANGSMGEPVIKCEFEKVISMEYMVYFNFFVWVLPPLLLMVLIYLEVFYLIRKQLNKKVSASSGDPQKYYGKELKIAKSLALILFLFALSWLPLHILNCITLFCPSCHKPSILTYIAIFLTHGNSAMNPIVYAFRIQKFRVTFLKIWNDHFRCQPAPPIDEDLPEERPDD
Description: Displacement of [3H]DPCPX from human adenosine A1 receptor expressed in CHO cells. In kind it is cell-based. (In general: In a radioligand displacement assay an active substance lowers the binding of a labelled ligand.)

Assay [2] concerns the target T2, Adenosine receptor A2b (Homo sapiens) (UniProt P29275).
T2 sequence (whole entry): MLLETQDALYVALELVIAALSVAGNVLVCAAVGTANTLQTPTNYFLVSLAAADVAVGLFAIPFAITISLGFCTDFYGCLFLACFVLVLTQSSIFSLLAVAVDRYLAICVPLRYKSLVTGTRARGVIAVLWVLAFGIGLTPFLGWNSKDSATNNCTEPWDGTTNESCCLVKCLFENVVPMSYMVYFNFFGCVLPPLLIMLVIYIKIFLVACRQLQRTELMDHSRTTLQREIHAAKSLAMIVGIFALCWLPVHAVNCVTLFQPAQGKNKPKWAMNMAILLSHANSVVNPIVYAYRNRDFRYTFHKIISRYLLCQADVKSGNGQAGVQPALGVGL
The assay is described as follows: Agonist activity at human recombinant adenosine A2B receptor expressed in CHO cells assessed as cAMP accumulation at 10 uM after 15 mins by liquid scintillation counting analysis. In kind it is functional, cell-based. For orientation: cAMP levels reflect the balance of adenylyl cyclase and phosphodiesterase activity.

Assay [3] addresses T3, Adenosine receptor A3 (Homo sapiens, UniProt P0DMS8).
T3 sequence (P0DMS8 whole entry): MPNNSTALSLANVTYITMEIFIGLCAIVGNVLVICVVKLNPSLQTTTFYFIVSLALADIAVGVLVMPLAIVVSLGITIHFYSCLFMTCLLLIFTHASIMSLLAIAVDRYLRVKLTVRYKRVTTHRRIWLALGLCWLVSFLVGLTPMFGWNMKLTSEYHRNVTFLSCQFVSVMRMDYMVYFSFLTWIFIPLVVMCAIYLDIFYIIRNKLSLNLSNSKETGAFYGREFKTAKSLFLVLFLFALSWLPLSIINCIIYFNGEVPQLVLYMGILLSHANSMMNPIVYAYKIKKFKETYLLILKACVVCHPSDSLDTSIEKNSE
The assay is described as follows: Displacement of [125I]AB-MECA from human adenosine A3 receptor expressed in CHO cells. The format is cell-based.

Assay [4] addresses T4, Adenosine receptor A2a (Homo sapiens, UniProt P29274). Description: Displacement of [3H]NECA from human adenosine A2A receptor expressed in CHO cells at 10 uM. In kind it is cell-based.
Assay [5] deals with T2, Adenosine receptor A2b (Homo sapiens). Description: Antagonist activity at human recombinant adenosine A2B receptor expressed in CHO cells assessed as inhibition of NECA-induced cAMP accumulation measured as cAMP level at 10 uM incubated for 15 mins prior to NECA challenge measured after 30 mins by liquid scintillation counting analysis relative to control. In kind it is functional, cell-based. On the set-up: scale not given: the % may be the effect or the level left.

Assay [6] deals with T5, Adenosine receptor A1 (Homo sapiens) (UniProt P30542).
T5 sequence (whole entry): T1 sequence (P30542 whole entry)
Description: Displacement of [3H]DPCPX from human adenosine A1 receptor expressed in CHO cells at 10 uM. The format is cell-based.

For assay [7], the target named is T6, Adenosine receptor A3 (Homo sapiens) (UniProt P0DMS8).
T6 sequence (whole entry): T3 sequence (P0DMS8 whole entry)
The assay is described as follows: Displacement of [125I]AB-MECA from human adenosine A3 receptor expressed in CHO cells at 1 uM. In kind it is cell-based.

For assay [8], the target named is T4, Adenosine receptor A2a. The assay is described as follows: Displacement of [3H]NECA from human adenosine A2A receptor expressed in CHO cells. The format is cell-based.

Calls of active or inactive are those of the source. The rule behind the calls is not given here.

T4 sequence (P29274 whole entry): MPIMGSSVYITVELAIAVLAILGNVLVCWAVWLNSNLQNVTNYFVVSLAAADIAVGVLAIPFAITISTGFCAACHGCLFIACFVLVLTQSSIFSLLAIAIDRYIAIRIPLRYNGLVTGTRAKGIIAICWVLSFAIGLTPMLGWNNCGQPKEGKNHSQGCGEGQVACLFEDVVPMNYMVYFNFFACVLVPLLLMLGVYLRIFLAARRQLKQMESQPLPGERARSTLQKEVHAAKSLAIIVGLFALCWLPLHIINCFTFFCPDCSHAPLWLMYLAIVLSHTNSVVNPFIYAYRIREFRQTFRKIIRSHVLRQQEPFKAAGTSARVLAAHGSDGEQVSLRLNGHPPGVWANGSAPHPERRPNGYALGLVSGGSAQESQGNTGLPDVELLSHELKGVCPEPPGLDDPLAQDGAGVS

As usually defined, the Ki is a measure of affinity in units of concentration, obtained from inhibition or displacement. For orientation: inhibition means the change of the read-out against control, counted positive when it falls. In the case of `COC(=O)N1Cc2nc(-c3ccccc3)nn2-c2cc(C)ccc21`, the Ki in assay [1] was 1480 nM; in assay [3], 31.9 nM. Also, in assay [2], the result was inactive. The compound further came in with an inhibition in assay [4] of 32%. For the same compound, in assay [5], the Activity was 74.9%.

With `COc1ccc(-c2nc3n(n2)-c2cc(C)ccc2N(C(=O)Cc2ccccc2)C3)cc1`, the outcome in assay [2] was inactive. The results for the inhibition in assay [6] and in assay [4] were 39% and 0%, respectively. The compound further gave a Ki in assay [3] of 54.8 nM. The Activity in assay [5] came to 89.5%.

`C#CCOC(=O)N1Cc2nc(-c3ccc(OC)cc3)nn2-c2cc(C)ccc21`: the result in assay [2] was inactive. Further, the inhibition in assay [6] was 49%; in assay [4], 13%. For the same compound, the inhibitory constant (Ki) in assay [3] is 23.3 nM. Also, the Activity in assay [5] turned out to be 109%.

In the case of `C#CCOC(=O)Nc1ccc(C)cc1-n1cnc(-c2ccc(OC)cc2)n1`, the figures for the inhibition in assay [4] and in assay [7] were 16% and 35%, respectively.

`CCOC(=O)N1Cc2nc(-c3ccc(OC)cc3)nn2-c2cc(C)ccc21`: the figures for the Ki in assay [1] and in assay [3] were 86 nM and 39.4 nM, respectively. Also, the inhibition in assay [4] stood at 2%.

Consider `COc1ccc(-c2ncn(-c3cc(C)ccc3NC(=O)Cc3ccccc3)n2)cc1`, for which the inhibition in assay [6] is 44%; in assay [4], 1%; in assay [7] it was 45%.

For `CCC(=O)N1Cc2nc(-c3ccc(OC)cc3)nn2-c2cc(C)ccc21`, the inhibition constant (Ki) in assay [1] was found to be 1540 nM; in assay [3], 25.1 nM. For the same compound, the outcome in assay [2] was inactive. This compound came in with an inhibition in assay [4] of 6%. For the same compound, in assay [5], the Activity worked out at 102%.

Turning to `COc1ccc(-c2nc(N(C(C)=O)C(C)=O)n(-c3ccccc3)n2)cc1`, the inhibition in assay [6] was determined as 26%; in assay [4], 4%; in assay [7] it was 19%.

As for `Cc1ccc2ncc3nc(-c4ccccc4)nn3c2c1`, the Ki in assay [1] was 1320 nM; in assay [8], 2400 nM; in assay [3], 23.9 nM.

Regarding `COc1ccc(-c2nc(N(C(=O)c3ccccc3)C(=O)c3ccccc3)n(-c3ccccc3)n2)cc1`, the inhibition was determined as 55% in assay [6], 13% in assay [4] and 44% in assay [7].

For `COC(=O)N1Cc2nc(-c3ccccc3)nn2-c2ccccc21`, the inhibition in assay [6] is 34%; in assay [4], 50%. This compound had a Ki in assay [3] of 245 nM.

Consider `c1ccc(-c2nc3cnc4ccccc4n3n2)cc1`, for which the inhibition constant (Ki) in assay [3] is 91.5 nM.

`CCOC(=O)Nc1ccc(C)cc1-n1cnc(-c2ccc(OC)cc2)n1`: the values for the inhibition in assay [6], in assay [4] and in assay [7] were 6%, 13% and 34%, respectively.

In the case of `CCC(=O)N1Cc2nc(-c3ccccc3)nn2-c2cc(Cl)ccc21`, the result in assay [2] was inactive. Further, the inhibition worked out at 39% in assay [6] and 24% in assay [4]. For the same compound, in assay [3], the Ki came to 72 nM. The Activity in assay [5] stood at 63.7%.

In the case of `COc1ccc(-c2nc(NC(=O)Nc3ccccc3)n(-c3ccccc3)n2)cc1`, the inhibition was found to be 1% in assay [6] and 7% in assay [4]. The compound also registered a Ki in assay [3] of 545 nM.

Turning to `Clc1ccc2ncc3nc(-c4ccccc4)nn3c2c1`, the inhibition constant Ki in assay [1] is 127 nM; in assay [3], 15.2 nM. The inhibition in assay [4] is 19%.

Take `CCCOC(=O)N1Cc2nc(-c3ccccc3)nn2-c2cc(C)ccc21`: the results for the inhibition constant (Ki) in assay [1] and in assay [3] were 565 nM and 171 nM, respectively. In assay [4], this compound registered an inhibition of 56%.

`COc1ccc(-c2nc3cnc4ccc(C)cc4n3n2)cc1`: the Ki was found to be 2020 nM in assay [1] and 26.6 nM in assay [3]. Also, in assay [2], the outcome was inactive. The inhibition in assay [4] was determined as 30%. In addition, in assay [5], the Activity was 42.6%.

Consider `CCOC(=O)N1Cc2nc(-c3ccccc3)nn2-c2cc(C)ccc21`, for which the inhibition constant (Ki) is 556 nM in assay [1] and 12.5 nM in assay [3]. Also, in assay [2], the result was inactive. In assay [4], this compound displayed an inhibition of 9%. For the same compound, in assay [5], the Activity worked out at 104%.

In the case of `CCOC(=O)N1Cc2nc(-c3ccccc3)nn2-c2ccccc21`, the inhibitory constant (Ki) in assay [1] was 4600 nM. The inhibition in assay [4] came out at 33%; in assay [7], 22%.

For `CCOC(=O)N1Cc2nc(-c3ccccc3)nn2-c2cc(Cl)ccc21`, the inhibition constant (Ki) in assay [3] was 166 nM.

Take `COc1ccc(-c2nc(NC(=O)c3ccccc3)n(-c3ccccc3)n2)cc1`: the values for the inhibition in assay [6], in assay [4] and in assay [7] were 25%, 43% and 50%, respectively.

For `COc1ccc(-c2ncn(-c3cc(C)ccc3NC(=O)OCc3ccccc3)n2)cc1`, the inhibition turned out to be 2% in assay [6], 7% in assay [4] and 47% in assay [7].

On to `CCC(=O)N1Cc2nc(-c3ccccc3)nn2-c2cc(C)ccc21`, for which the values for the Ki in assay [1] and in assay [3] were 134 nM and 6.5 nM, respectively. In assay [2], the result was inactive. Further, the inhibition in assay [4] came to 33%. The Activity in assay [5] stood at 68.6%.

`CCC(=O)N1Cc2nc(-c3ccccc3)nn2-c2ccccc21` returned a Ki in assay [1] of 1360 nM. Also, the inhibition in assay [4] is 52%; in assay [7] it was 55%.

Take `COc1ccc(-c2nc3n(n2)-c2cc(C)ccc2N(C(=O)OCc2ccccc2)C3)cc1`: the inhibition in assay [6] is 45%; in assay [4], 4%. This compound also had an inhibition constant (Ki) in assay [3] of 231 nM.
